Assay results as given in PMC7719179, “Small molecule inhibition of Dynamin-dependent endocytosis targets multiple niche signals and impairs leukemia stem cells” (Nature Communications, 2020).
Where “and” joins values, the source holds several entries; their conditions need not be identical. Equal entries are not always repeated. Where two headings read alike, the source gives them in different places.

Experiments:
[1] = tested on: pStat5 in leukemic DN3a cells from primary Lmo2^Tg T-ALL; assay: IL-7-induced pStat5 in leukemic DN3a cells from primary Lmo2^Tg T-ALL; format: cell-based, mouse
Method: Phosphoflow analysis was performed as previously described. Briefly, 2 × 10^6 cells stained for surface markers were subsequently resuspended into PBS 1× + 4% v/v paraformaldehyde and incubated for 10 min at 4 °C for fixation. Fixed cells were washed twice using PBS 1×, then resuspended in pre-chilled at −20 °C Perm Buffer III (BD Pharmingen) and incubated 30 min at 4 °C for permeabilization. Cells were washed twice using PBS 1× and incubated overnight at 4 °C in PBS 1× + 2% v/v fetal calf serum (FCS) with Cell Signalling purified antibodies (Genesearch Pty Ltd, Arundel QLD, Australia) against pSTAT5 (Tyr694; #9359), phospho-p38 MAPK (Thr180/Tyr182; #4511), phospho-p44/42 (Erk1/2; #9102), phospho-S6 (Ser235/236; #4856) and phospho-Akt (Ser473; #9271) or isotype control. For intracellular HES1 detection, cells stained for surface markers were subsequently fixed and permeabilized using the BD Cytofix/Cytoperm^TM Kit and incubated overnight at 4 °C in PBS 1× + 2% v/v FCS with a purified antibody against HES1 (D6PU; #11988, Cell Signalling) or isotype control. After staining with primary antibodies for phosphoflow or intracellular detection, cells were incubated in permeabilization buffer with donkey Alexa Fluor 488-conjugated anti-rabbit secondary antibody (A-21206, lot #1910751, Molecular Probes, Invitrogen) or goat Alexa Fluor 546-conjugated anti-rabbit secondary antibody (A-11035, lot #1904467, Molecular Probes, Invitrogen) for 1 h on ice, and washed twice in PBS 1×. Fluorescence-activated cell sorting (FACS) analysis was performed using LSRII and LSR Fortessa cytometers, following the gating strategies described in Supplementary Fig. 11. Cell sorting was performed with a FACSAria or BD Influx.
For in vitro IL-7 stimulation assays, cells were starved in serum-free DMEM at 37 °C, then incubated with either vehicle or Dynole 34-2 or Ruxolitinib (INCB018424; #S1378, Selleckchem), or DAPT (GSI-IX; #S2215, Selleckchem) resuspended in DMSO for 1 h. Thymocytes were subsequently stimulated with 25 ng/mL IL-7 at 37 °C for 20 min and washed twice using cold PBS 1×. Cells were incubated with 25 ng/mL Rat IgG (Sigma-Aldrich Pty Ltd, Castle Hill NSW, Australia) and with a PE-conjugated antibody for detection of IL-7R (CD127) for 1 h on ice, as described in the FACS analysis section. PE-conjugated isotype was used as negative control. Cells were washed twice, fixed and phosphoflow analysis performed as described in the FACS analysis section. The analysis was performed in triplicate and the mean fluorescence intensity (MFI) observed without stimulation was reported as 100%.

[2] = tested on: DN3a thymocytes; assay: Relative viability and LC50 on DN3a thymocytes of WT, Lmo2^Tg, Lmo2^Tg;STAT5-CA^Tg and Lmo2^Tg;N1-ICD^Tg mice, 48 h; settings: for viability at 200 µM / viability at 40 µM: Mus musculus, Thymocyte
Method: Pre-leukemic and leukemic thymocytes were purified by flow cytometry and co-cultured on GFP-positive OP9 and OP9-DL1 stromal cell lines, as described previously. Thymocytes were co-cultured in reconstituted alpha-MEM medium (#12318, Gibco, Grand Island NY, USA) supplemented with 20% FCS (#12318), HEPES 10 mM (#15630-080), sodium pyruvate 1 mM (#11360-070), β-mercaptoethanol 55 μM (#21985-023), Glutamax 2 mM (#15750-060), 1% Penicillin/Streptomycin (#15140-122), 5 ng/mL rmFLT-3 ligand (#250-31 L, Pepro Tech), 5 ng/mL rmIL-7 (#217-17, Pepro Tech) and 25 ng/mL rmSCF (#250-03, Pepro Tech). After 48 h of co-culture, thymocytes were counted and analysed by FACS. […]
viability of wild-type (WT), Lmo2 Tg, Lmo2Tg;STAT5-CA Tg and Lmo2Tg;N1-ICD Tg DN3a thymocytes […]
normalized to cells treated with vehicle (%DMSO). Mean ± SEM of n=4 biological replicates. b, […]
thymocytes from 6-week old wild-type (WT), Lmo2 Tg, Lmo2Tg;STAT5-CATg and Lmo2Tg ;N1-ICD Tg mice. Mean ± SD of n=4 biological replicates are shown. 2-way ANOVA with Tukey’s correction test; […]
(1 picture or pasted object on this page, not shown here)
*P<0.05, *** P<0.001 compared to WT; #P<0.05, ##P<0.01, ###P<0.001 compared to L mo2Tg. c, Levels of pStat5 (left) after stimulation with IL-7 , as well as Hes1 expression (right) after co-culture on OP9- […]
(0.2 µM), Ruxolitinib (0.2 µM) and DAPT (0.1 µM). Unstimulated cells were used as negative controls (dashed line). Student’s t -test, ** P<0.01, *** P<0.001 compared to unstimulated cells. MFI ± SEM, 1-way ANOVA with Tukey’s correction test; **P<0.01, *** P<0.001 compared to vehicle. d, Clonogenic assay of normal murine hematopoietic stem and progenitor cells (HSPCs) cultured in the presence […]
± SD, Student’s t -test ( n=4) **P<0.01 compared to vehicle. e, Relative viability of wild-type (WT), […]
2 (0.2 µM), Ruxolitinib (0.2 µM) and DAPT (0.1 µM) for 48 hours. Viability was normalized to cells treated with vehicle (%DMSO, which was reported as 100). Mean ± SEM, 2-way ANOVA with Tukey’s correction test, **P<0.01, *** P<0.001 compared to vehicle.

[3] = leukemic DN3a cells of TALL249, IL-7 stimulation
[4] = leukemic DN3a cells of TALL257, IL-7 stimulation
[5] = leukemic DN3a cells of TALL273, IL-7 stimulation
[6] = leukemic DN3a cells of TALL582, IL-7 stimulation
[7] = leukemic DN3a cells of TALL588, IL-7 stimulation
[8] = leukemic DN3a cells of TALL742, IL-7 stimulation
[9] = read-out: Relative % viable cells, Lmo2Tg;STAT5-CATg DN3a thymocytes, dose 0.2 mM (so in the source)

Row | SMILES | pStat5 (MFI) [1, 3] | pStat5, FOLD over unstimulated [1, 3] | pStat5 (MFI) [1, 4] | pStat5, FOLD over unstimulated [1, 4] | pStat5 (MFI) [1, 5] | pStat5, FOLD over unstimulated [1, 5] | pStat5 (MFI) [1, 6] | pStat5, FOLD over unstimulated [1, 6] | pStat5 (MFI) [1, 7] | pStat5, FOLD over unstimulated [1, 7] | pStat5 (MFI) [1, 8] | pStat5, FOLD over unstimulated [1, 8] | viability at 200 µM [2, 9] | Survival (% DMSO) ([2]; Lmo2Tg;STAT5-CATg) | also measured
1 | CCCCCCCCNC(=O)C(C#N)=Cc1cn(CCCN(C)C)c2ccccc12 [Dynole 34-2, 2-Cyano-N-octyl-3-(1-(3-dimethylaminopropyl)-1H-indol-3-yl)-acrylamide] | 3097 MFI | 0.78 fold | 1676 MFI | 1.08 fold | 2251 MFI | 1.00 fold | 15189 MFI | 0.40 fold | 2662 MFI | 1.03 fold | 5864 MFI | 1.03 fold | 37.5% |  | relative resistance conferred by mutations downstream of DDE (STAT5-CA^Tg, N1-ICD^Tg) vs Lmo2^Tg DN3a ([2]; LC50 comparison, 48 h): 3.4 fold; Relative % viable cells ([2]; Lmo2Tg DN3a thymocytes, dose 0.04 mM (so in the source)): 53.38% and 35.26% and 57.31% and 29.03%; Relative % viable cells ([2]; Lmo2Tg DN3a thymocytes, dose 25 mM (so in the source)): 0%; Relative % viable cells ([2]; Lmo2Tg;Notch1Tg DN3a thymocytes, dose 1 mM (so in the source)): 27.05% and 30.53% and 26.36%; Relative % viable cells ([2]; Lmo2Tg;STAT5-CATg DN3a thymocytes, dose 0.04 mM (so in the source)): 60% and 110.87% and 62.94% and 65.19%; Relative % viable cells ([2]; Lmo2Tg;STAT5-CATg DN3a thymocytes, dose 0.2 mM (so in the source)): 40.03% and 50.05% and 55.36%; Relative % viable cells ([2]; Lmo2Tg;STAT5-CATg DN3a thymocytes, dose 25 mM (so in the source)): 0% and 5.23% and 8.65%; Relative % viable cells ([2]; WT DN3a thymocytes, dose 0.04 mM (so in the source)): 81.18% and 50% and 68.95% and 71.06% and 67.17%; Relative % viable cells ([2]; WT DN3a thymocytes, dose 5 mM (so in the source)): 5.59% and 1.77% and 8.44% and 6.33% and 6.38%; Relative % viable cells ([2]; WT DN3a thymocytes, dose 25 mM (so in the source)): 0% and 8.83%; sensitivity of wild-type (WT) DN3a thymocytes relative to pre-LSCs ([2]; WT vs Lmo2^Tg DN3a, result in words): fivefold less sensitive
2 | C[C@H](NC(=O)Cc1cc(F)cc(F)c1)C(=O)N[C@H](C(=O)OC(C)(C)C)c1ccccc1 [DAPT, N-[N-(3,5-Difluorophenacetyl)-L-alanyl]-S-phenylglycine t-butyl ester] | 15113 MFI | 3.80 fold | 2628 MFI | 1.69 fold | 2744 MFI | 1.22 fold | 34040 MFI | 0.89 fold | 3980 MFI | 1.55 fold | 7661 MFI | 1.35 fold |  | 52.45 % DMSO and 51.11 % DMSO and 34.78 % DMSO | fold resistance of Lmo2^Tg;N1-ICD^Tg DN3a cells vs Lmo2^Tg thymocytes ([2]; LC50 comparison, 48 h): 9 fold; Survival (% DMSO) ([2]; Lmo2Tg): 17.19 % DMSO and 25.07 % DMSO and 13.99 % DMSO; Relative % viable cells ([2]; Lmo2Tg DN3a thymocytes, dose 0.02 mM (so in the source)): 79.43% and 55.29% and 67.53%; Relative % viable cells ([2]; Lmo2Tg DN3a thymocytes, dose 0.1 mM (so in the source)): 25.07% and 13.99% and 17.19%; Relative % viable cells ([2]; Lmo2Tg DN3a thymocytes, dose 0.5 mM (so in the source)): 5.42% and 10.32% and 11.23%; Relative % viable cells ([2]; Lmo2Tg DN3a thymocytes, dose 2.5 mM (so in the source)): 5.22% and 9.91% and 8.68%; Relative % viable cells ([2]; Lmo2Tg DN3a thymocytes, dose 12.5 mM (so in the source)): 5.76% and 9.27% and 6.48%; Survival (% DMSO) ([2]; Lmo2Tg;Notch1Tg): 55.35 % DMSO and 68.13 % DMSO and 61.12 % DMSO and 65.99 % DMSO; Relative % viable cells ([2]; Lmo2Tg;Notch1Tg DN3a thymocytes, dose 0.02 mM (so in the source)): 68.73% and 83.56% and 62.24% and 87.12%; Relative % viable cells ([2]; Lmo2Tg;Notch1Tg DN3a thymocytes, dose 0.1 mM (so in the source)): 55.35% and 68.13% and 61.12% and 65.99%; Relative % viable cells ([2]; Lmo2Tg;Notch1Tg DN3a thymocytes, dose 0.5 mM (so in the source)): 52.22% and 56.33% and 58%; Relative % viable cells ([2]; Lmo2Tg;STAT5-CATg DN3a thymocytes, dose 0.02 mM (so in the source)): 76.45% and 84.74% and 59.85%; Relative % viable cells ([2]; Lmo2Tg;STAT5-CATg DN3a thymocytes, dose 0.1 mM (so in the source)): 52.45% and 51.11% and 34.78%; Relative % viable cells ([2]; Lmo2Tg;STAT5-CATg DN3a thymocytes, dose 0.5 mM (so in the source)): 38.67% and 42.63% and 42.16%; Relative % viable cells ([2]; Lmo2Tg;STAT5-CATg DN3a thymocytes, dose 2.5 mM (so in the source)): 27.14% and 38.85% and 21.86%; Relative % viable cells ([2]; Lmo2Tg;STAT5-CATg DN3a thymocytes, dose 12.5 mM (so in the source)): 19.43% and 16.58% and 21.18%
3 | N#CC[C@H](C1CCCC1)n1cc(-c2ncnc3[nH]ccc23)cn1 [Ruxolitinib] | 2437 MFI | 0.61 fold | 2111 MFI | 1.36 fold | 2300 MFI | 1.02 fold | 33429 MFI | 0.88 fold | 3772 MFI | 1.47 fold | 5460 MFI | 0.96 fold | 69.3% | 69.32 % DMSO and 78.95 % DMSO and 73.54 % DMSO | fold resistance of Lmo2^Tg;STAT5-CA^Tg DN3a thymocytes vs Lmo2^Tg DN3a cells ([2]; LC50 comparison, 48 h): 5.3 fold; viability at 40 µM ([2]; read-out: Relative % viable cells, Lmo2Tg DN3a thymocytes, dose 0.04 mM (so in the source)): 88.8%; viability at 40 µM ([2]; read-out: Relative % viable cells, Lmo2Tg;STAT5-CATg DN3a thymocytes, dose 0.04 mM (so in the source)): 95.5%; Survival (% DMSO) ([2]; WT): 39.65 % DMSO and 53.08 % DMSO and 37.17 % DMSO
